From ChEMBL document CHEMBL1781926, “Synthesis of 1-naphtylpiperazine derivatives as serotoninergic ligands and their evaluation as antiproliferative agents” (Eur J Med Chem, 2011)
Activity calls are given as the source filed them. No cut-off for these calls is given here.

Legend:
PC-3 [1] = assay: Cell cycle arrest in human PC3 cells assessed as accumulation at G1 phase at 15 uM after 72 hrs using propidium iodide staining by flow cytometry (reference value: 42.19 %); format: functional
PC-3 [2] = assay: Cell cycle arrest in human PC3 cells assessed as accumulation at G2 phase at 15 uM after 72 hrs using propidium iodide staining by flow cytometry (reference value: 20.18 %); format: functional
PC-3 [3] = assay: Cell cycle arrest in human PC3 cells assessed as accumulation at S phase at 15 uM after 72 hrs using propidium iodide staining by flow cytometry (reference value: 37.73 %); format: functional
PC-3 [4] = assay: Induction of apoptosis in human PC3 cells at 15 uM after 72 hrs using propidium iodide staining by flow cytometry (reference value: 1.79 %); format: functional
PC-3 [5] = assay: Inhibition of serotonin-induced MAPK phosphorylation in human PC3 cells at 15 uM after 48 hrs by Western blotting; format: cell-based
[6] = target: RAC-alpha serine/threonine-protein kinase (Homo sapiens) (UniProt P31749); assay: Inhibition of serotonin-induced AKT phosphorylation in human PC3 cells at 15 uM after 48 hrs by Western blotting; format: cell-based; conditions: PC-3
PC-3 [7] = assay: Cell cycle arrest in human PC3 cells assessed as accumulation at G1 phase at 15 uM after 24 hrs using propidium iodide staining by flow cytometry (reference value: 46.97 %); format: functional
PC-3 [8] = assay: Antiproliferative activity against human PC3 cells assessed as growth inhibition after 96 hrs by SRB assay; format: functional, cell-based
PC-3 [9] = assay: Cell cycle arrest in human PC3 cells assessed as accumulation at G2 phase at 15 uM after 24 hrs using propidium iodide staining by flow cytometry (reference value: 18.19 %); format: functional
PC-3 [10] = assay: Cell cycle arrest in human PC3 cells assessed as accumulation at S phase at 15 uM after 24 hrs using propidium iodide staining by flow cytometry (reference value: 34.84 %); format: functional
PC-3 [11] = assay: Induction of apoptosis in human PC3 cells at 15 uM after 24 hrs using propidium iodide staining by flow cytometry (reference value: 1.27 %); format: functional
PC-3 [12] = assay: Cell cycle arrest in human PC3 cells assessed as accumulation at G1 phase at 15 uM after 48 hrs using propidium iodide staining by flow cytometry (reference value: 54.14 %); format: functional
PC-3 [13] = assay: Cell cycle arrest in human PC3 cells assessed as accumulation at G2 phase at 15 uM after 48 hrs using propidium iodide staining by flow cytometry (reference value: 13.36 %); format: functional
PC-3 [14] = assay: Cell cycle arrest in human PC3 cells assessed as accumulation at S phase at 15 uM after 48 hrs using propidium iodide staining by flow cytometry (reference value: 38.16 %); format: functional
PC-3 [15] = assay: Induction of apoptosis in human PC3 cells at 15 uM after 48 hrs using propidium iodide staining by flow cytometry (reference value: 0.84 %); format: functional
[16] = target: T1, Adrenergic receptor alpha-2 (Rattus norvegicus, UniProt P22086+P19328+P22909); assay: Displacement [3H]yohimbine from alpha 2 adrenergic receptor in rat brain cortex homogenates after 30 mins by liquid scintillation counting; format: tissue-based
T1 sequence (P22086 whole entry): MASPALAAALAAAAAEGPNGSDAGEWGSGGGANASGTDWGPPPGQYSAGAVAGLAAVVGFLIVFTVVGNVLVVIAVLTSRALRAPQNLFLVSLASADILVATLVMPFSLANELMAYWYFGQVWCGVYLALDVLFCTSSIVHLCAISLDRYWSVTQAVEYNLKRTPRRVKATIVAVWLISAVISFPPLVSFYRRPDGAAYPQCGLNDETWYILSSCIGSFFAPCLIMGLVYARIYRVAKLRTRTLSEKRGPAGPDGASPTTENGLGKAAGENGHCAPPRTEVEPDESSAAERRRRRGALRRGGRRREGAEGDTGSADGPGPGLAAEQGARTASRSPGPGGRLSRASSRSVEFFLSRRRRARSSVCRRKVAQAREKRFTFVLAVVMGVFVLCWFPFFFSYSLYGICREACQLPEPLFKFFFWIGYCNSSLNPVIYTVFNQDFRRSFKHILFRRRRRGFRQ
T1 sequence (P19328 whole entry): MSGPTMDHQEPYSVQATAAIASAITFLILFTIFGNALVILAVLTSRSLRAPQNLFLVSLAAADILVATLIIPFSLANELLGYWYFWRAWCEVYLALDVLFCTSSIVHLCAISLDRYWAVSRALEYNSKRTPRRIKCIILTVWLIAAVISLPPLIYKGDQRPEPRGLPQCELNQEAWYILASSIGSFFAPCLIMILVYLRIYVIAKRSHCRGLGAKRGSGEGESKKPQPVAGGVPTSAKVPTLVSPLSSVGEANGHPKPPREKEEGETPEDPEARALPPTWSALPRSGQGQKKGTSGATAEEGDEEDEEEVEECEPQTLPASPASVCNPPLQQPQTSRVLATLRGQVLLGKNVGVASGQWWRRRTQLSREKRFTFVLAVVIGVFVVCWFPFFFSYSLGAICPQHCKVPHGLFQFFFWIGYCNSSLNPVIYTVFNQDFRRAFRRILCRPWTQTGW
T1 sequence (P22909 whole entry): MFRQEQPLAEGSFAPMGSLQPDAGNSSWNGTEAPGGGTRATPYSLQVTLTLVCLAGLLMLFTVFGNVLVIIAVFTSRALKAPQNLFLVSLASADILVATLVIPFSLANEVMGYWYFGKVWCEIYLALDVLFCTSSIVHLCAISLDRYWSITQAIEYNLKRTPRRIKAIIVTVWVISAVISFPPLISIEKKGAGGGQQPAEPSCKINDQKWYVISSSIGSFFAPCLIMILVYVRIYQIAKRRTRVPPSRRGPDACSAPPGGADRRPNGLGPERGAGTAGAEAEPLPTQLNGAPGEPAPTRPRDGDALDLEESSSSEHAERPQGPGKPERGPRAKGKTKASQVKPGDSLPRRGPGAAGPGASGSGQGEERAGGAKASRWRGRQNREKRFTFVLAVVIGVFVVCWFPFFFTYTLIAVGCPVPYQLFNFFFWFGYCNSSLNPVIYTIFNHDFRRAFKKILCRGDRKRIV

[17] = target: T2, Adrenergic receptor alpha-1 (Rattus norvegicus, UniProt P15823+P23944+P43140); assay: Displacement [3H]prazosin from alpha1 adrenergic receptor in rat brain cortex homogenates after 30 mins by liquid scintillation counting; format: tissue-based
T2 sequence (P15823 whole entry): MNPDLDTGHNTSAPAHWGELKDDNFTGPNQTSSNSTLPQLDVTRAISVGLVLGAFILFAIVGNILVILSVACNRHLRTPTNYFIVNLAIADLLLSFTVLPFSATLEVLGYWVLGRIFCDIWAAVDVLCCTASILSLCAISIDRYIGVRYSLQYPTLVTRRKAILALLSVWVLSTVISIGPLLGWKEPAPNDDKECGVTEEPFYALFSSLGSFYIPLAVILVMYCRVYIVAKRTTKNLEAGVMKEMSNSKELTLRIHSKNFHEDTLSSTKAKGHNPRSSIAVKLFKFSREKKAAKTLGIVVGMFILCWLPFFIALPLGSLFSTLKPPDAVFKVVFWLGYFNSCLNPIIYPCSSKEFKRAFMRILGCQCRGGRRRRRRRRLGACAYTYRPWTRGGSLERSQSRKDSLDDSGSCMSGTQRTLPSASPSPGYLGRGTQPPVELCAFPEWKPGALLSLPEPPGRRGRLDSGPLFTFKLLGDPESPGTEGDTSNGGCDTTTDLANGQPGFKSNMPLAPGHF
T2 sequence (P23944 whole entry): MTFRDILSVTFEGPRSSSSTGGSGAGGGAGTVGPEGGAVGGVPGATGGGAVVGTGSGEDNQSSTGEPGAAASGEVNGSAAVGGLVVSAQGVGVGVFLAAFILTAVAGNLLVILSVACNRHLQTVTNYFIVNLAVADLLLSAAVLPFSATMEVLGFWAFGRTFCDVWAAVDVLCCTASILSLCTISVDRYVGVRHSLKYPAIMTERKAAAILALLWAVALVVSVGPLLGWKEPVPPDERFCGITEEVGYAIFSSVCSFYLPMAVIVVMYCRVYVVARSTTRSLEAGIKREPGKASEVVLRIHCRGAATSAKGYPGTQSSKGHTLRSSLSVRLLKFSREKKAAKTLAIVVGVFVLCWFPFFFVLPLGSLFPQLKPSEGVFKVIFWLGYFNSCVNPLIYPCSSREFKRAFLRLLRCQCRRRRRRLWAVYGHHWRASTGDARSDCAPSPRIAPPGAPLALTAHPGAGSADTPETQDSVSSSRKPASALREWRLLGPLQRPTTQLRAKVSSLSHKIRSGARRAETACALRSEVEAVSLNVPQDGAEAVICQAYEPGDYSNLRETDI
T2 sequence (P43140 whole entry): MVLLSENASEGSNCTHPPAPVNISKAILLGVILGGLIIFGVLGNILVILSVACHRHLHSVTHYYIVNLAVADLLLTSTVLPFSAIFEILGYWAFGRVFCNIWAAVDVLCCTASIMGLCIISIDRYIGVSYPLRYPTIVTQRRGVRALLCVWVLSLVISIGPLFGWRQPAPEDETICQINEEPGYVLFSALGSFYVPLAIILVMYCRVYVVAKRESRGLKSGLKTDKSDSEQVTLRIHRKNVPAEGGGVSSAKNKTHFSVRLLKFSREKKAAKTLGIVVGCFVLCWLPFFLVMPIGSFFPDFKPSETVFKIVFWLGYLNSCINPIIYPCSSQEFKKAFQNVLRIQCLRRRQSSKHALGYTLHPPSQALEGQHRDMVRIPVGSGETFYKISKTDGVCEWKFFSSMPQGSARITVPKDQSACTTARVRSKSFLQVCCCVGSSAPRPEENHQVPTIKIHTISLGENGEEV

[18] = target: T3, 5-hydroxytryptamine receptor 2C (Rattus norvegicus, UniProt P08909); assay: Displacement of [3H]mesulergine from 5HT2C receptor in Sprague-Dawley rat frontal cortical homogenates after 15 mins
T3 sequence (P08909 whole entry): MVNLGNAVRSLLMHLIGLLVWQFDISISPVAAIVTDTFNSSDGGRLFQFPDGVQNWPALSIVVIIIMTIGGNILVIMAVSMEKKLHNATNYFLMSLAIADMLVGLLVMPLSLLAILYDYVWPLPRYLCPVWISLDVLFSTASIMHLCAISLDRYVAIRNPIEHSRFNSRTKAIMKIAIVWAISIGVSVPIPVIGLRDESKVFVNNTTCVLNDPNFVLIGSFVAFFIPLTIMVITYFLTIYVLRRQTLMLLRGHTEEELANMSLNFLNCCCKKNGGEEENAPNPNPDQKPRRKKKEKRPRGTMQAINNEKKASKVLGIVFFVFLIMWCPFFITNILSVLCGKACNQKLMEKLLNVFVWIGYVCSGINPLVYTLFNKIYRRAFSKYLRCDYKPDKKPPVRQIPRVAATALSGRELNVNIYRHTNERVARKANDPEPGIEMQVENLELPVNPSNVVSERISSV

D(1A) dopamine receptor = D(1A) dopamine receptor (Rattus norvegicus, UniProt P18901); assay: Displacement of [3H]SCH 23390 from dopamine D1 receptor in rat corpora striatum homogenates after 15 mins by liquid scintillation counting
D(2) dopamine receptor = D(2) dopamine receptor (Rattus norvegicus, UniProt P61169); assay: Displacement of [3H]spiperone from dopamine D2 receptor in rat corpora striatum homogenates after 15 mins by liquid scintillation counting
[19] = target: T4, 5-hydroxytryptamine receptor 1A (Rattus norvegicus, UniProt P19327); assay: Displacement of [3H]8-OH-DPAT from 5HT1A receptor in Sprague-Dawley rat brain cortex homogenates after 30 mins by liquid scintillation counting; format: tissue-based
T4 sequence (P19327 whole entry): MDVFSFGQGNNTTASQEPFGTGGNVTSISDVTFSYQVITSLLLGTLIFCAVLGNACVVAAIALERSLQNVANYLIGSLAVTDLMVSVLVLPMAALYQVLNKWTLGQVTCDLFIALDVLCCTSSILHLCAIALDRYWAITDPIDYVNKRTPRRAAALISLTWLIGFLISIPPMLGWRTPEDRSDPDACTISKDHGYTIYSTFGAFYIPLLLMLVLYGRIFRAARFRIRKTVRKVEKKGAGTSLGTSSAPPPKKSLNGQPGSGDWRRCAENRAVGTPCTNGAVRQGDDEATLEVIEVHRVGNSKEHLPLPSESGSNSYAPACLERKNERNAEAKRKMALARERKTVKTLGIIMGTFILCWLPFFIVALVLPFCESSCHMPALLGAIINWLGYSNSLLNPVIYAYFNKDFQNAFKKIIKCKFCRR

[20] = target: 5-hydroxytryptamine receptor 2A (Rattus norvegicus, UniProt P14842); assay: Displacement of [3H]Ketanserin from 5HT2A receptor in Sprague-Dawley rat frontal cortical homogenates after 15 mins
Chain of 5-hydroxytryptamine receptor 2A (P14842 whole entry): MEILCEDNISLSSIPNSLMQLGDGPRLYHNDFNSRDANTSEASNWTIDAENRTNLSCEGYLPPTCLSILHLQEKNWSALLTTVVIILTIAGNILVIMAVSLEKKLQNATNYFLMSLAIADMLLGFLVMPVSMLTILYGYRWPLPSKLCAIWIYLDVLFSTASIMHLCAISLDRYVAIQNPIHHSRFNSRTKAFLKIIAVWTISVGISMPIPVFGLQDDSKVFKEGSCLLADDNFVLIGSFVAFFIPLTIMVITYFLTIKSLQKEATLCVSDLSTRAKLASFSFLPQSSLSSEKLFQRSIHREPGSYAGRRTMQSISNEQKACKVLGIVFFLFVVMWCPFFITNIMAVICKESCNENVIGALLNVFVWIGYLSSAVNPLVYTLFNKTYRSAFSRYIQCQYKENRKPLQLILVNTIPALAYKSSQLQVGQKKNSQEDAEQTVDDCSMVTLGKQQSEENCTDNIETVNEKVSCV

Chain of D(1A) dopamine receptor (P18901 whole entry): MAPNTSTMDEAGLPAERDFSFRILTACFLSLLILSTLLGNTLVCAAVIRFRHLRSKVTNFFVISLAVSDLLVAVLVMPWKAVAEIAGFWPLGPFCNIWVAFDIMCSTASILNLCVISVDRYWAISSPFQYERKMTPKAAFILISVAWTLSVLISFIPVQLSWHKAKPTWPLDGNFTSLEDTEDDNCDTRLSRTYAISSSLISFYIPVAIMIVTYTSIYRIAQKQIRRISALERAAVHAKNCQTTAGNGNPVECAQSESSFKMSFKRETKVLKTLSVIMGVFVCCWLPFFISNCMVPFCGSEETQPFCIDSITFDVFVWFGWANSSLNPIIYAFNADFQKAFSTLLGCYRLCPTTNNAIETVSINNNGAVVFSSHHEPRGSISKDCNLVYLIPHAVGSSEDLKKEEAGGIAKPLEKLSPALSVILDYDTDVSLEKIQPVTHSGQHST
Chain of RAC-alpha serine/threonine-protein kinase (Homo sapiens) (P31749 whole entry): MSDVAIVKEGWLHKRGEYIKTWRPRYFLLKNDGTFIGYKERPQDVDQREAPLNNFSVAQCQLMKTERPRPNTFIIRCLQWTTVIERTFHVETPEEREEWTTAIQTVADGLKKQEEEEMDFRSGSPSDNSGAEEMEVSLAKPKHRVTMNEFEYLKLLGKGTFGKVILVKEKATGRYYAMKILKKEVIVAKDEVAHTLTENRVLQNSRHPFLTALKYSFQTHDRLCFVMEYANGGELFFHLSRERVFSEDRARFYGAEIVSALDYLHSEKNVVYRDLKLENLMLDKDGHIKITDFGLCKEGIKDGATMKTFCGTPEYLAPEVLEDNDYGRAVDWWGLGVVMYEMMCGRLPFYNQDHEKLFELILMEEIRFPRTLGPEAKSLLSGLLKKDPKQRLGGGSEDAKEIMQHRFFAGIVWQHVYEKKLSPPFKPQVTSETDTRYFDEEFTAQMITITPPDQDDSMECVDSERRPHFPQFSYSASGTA
Chain of D(2) dopamine receptor (P61169 whole entry): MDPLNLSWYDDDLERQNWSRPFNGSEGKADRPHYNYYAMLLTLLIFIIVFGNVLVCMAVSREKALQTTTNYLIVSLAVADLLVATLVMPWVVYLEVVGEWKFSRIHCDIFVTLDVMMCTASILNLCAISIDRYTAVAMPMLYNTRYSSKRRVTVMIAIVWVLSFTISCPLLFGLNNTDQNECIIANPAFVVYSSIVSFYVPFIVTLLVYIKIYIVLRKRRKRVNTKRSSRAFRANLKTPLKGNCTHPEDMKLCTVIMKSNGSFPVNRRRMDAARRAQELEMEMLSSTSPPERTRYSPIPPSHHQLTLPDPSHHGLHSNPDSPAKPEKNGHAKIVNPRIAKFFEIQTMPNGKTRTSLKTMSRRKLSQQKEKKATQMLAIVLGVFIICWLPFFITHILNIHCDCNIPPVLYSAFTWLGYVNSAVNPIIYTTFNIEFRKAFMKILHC

Structure (SMILES) | Activity (PC-3 [1]) [%] | Activity (PC-3 [2]) [%] | Activity (PC-3 [3]) [%] | Activity (PC-3 [4]) [%] | Activity (PC-3 [7]) [%] | growth inhibition (GI) (PC-3 [8]) | Activity (PC-3 [9]) [%] | Activity (PC-3 [10]) [%] | Activity (PC-3 [11]) [%] | Activity (PC-3 [12]) [%] | Activity (PC-3 [13]) [%] | Activity (PC-3 [14]) [%] | Activity (PC-3 [15]) [%] | also measured
Br.CCCN(CCC)[C@H]1CCc2cccc(O)c2C1 | 50.34 | 13.17 | 36.5 | 2.65 | 40.62 | inactive | 24.42 | 34.96 | 0.73 | 47.78 | 14.92 | 37.31 | 2.2 | inhibition (PC-3 [5]): inactive; inhibition [6]: Active
N#C/N=C(\NCCCN1CCN(c2cccc3ccccc23)CC1)c1ccncc1 |  |  |  |  |  | inactive |  |  |  |  |  |  |  | Ki [16]: 878 nM; Ki [17]: > 10000 nM; Ki [18]: Not Active
N#CNC(=NCCCN1CCN(c2cccc3ccccc23)CC1)c1ccncc1 |  |  |  |  |  |  |  |  |  |  |  |  |  | Ki (D(1A) dopamine receptor): > 10000 nM; Ki (D(2) dopamine receptor): 1600 nM; Ki [19]: > 10000 nM; Ki [20]: 172 nM
Br.COc1ccccc1N1CCN(CCCCN2C(=O)c3ccccc3C2=O)CC1 | 45.73 | 11.26 | 43.02 | 3.05 | 37.1 | inactive | 24.74 | 38.16 | 2.42 | 49.53 | 14.88 | 35.59 | 1.77 | 
